In EP0150638A1, “Pyrethroid composition for the local treatment of skin diseases” (CENTRE DE RECHERCHE D'APPLICATIONS PHARMACEUTIQUES …, priority 1983, dated 1985):

Test: primary cutaneous irritation test
Type: in vivo, lapin
Conditions: rabbit; compared with other allethrin isomers, natural pyrethrin, or hydrocarbon-containing compositions
Description: Le pouvoir irritant des compositions selon l'invention a été étudié chez le lapin, par un test d'irritation cutanée primaire, dont les conditions de réalisation sont définies dans le Journal Officiel de la République Française du 21 avril 1971, complété par celui du 5 juin 1973. Il a été comparé à celui des compositions où des pyréthrines naturelles remplaçaient les pyréthrinoldes de l'invention et à celui de compositions résultant du mélange des pyréthrinoides et d'huile de vaseline ou d'isododécane.

For `C=CCC1=C(C)[C@@H](OC(=O)[C@@H]2[C@@H](C=C(C)C)C2(C)C)CC1=O` [pyréthrinoide de l'exemple 1, d-transchrysanthémate de d-alléthrolone], which “pouvoir irritant (comparison in words)” value is on record?
Its value is “beaucoup moins irritant”.
